Laboratory results published in ChEMBL document CHEMBL1201862, “PubChem BioAssay data set” (2004).
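Briefly, cells in 96-well plates were exposed to five compound concentrations for 48 h, and endpoints were estimated by linear interpolation. GI50 = concentration required for 50% inhibition of growth.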 Activity calls are given as the source filed them. Cut-off read from the data, not from the text of the source: active = GI50 up to about 1.1 µM and inactive = higher.

Key:
Test in all cases: growth of human tumour cells (NCI), 48 h
UO-31 = test system: UO-31
HOP-62 = test system: HOP-62
KM12 = test system: KM12
NCI-H522 = test system: NCI-H522
COLO 205 = test system: COLO 205
HCT-15 = test system: HCT-15
SK-MEL-2 = test system: SK-MEL-2
SK-OV-3 = test system: SK-OV-3
DLD-1 = test system: DLD-1
U-251 = test system: U-251
HCC 2998 = test system: HCC 2998
EKVX = test system: EKVX
DMS-273 = test system: DMS-273
HCT-116 = test system: HCT-116
CAKI-1 = test system: CAKI-1
HOP-18 = test system: HOP-18
UACC-257 = test system: UACC-257
ACHN = test system: ACHN
SR = test system: SR
SN12C = test system: SN12C
XF498 = test system: XF498
LOX IMVI = test system: LOX IMVI
SNB-75 = test system: SNB-75
IGROV-1 = test system: IGROV-1
OVCAR-5 = test system: OVCAR-5
SF-539 = test system: SF-539
OVCAR-3 = test system: OVCAR-3
CCRF-CEM = test system: CCRF-CEM
OVCAR-8 = test system: OVCAR-8
M19-MEL = test system: M19-MEL
NCI-H226 = test system: NCI-H226
DMS-114 = test system: DMS-114
SK-MEL-28 = test system: SK-MEL-28
UACC-62 = test system: UACC-62
SNB-78 = test system: SNB-78
A549 = test system: A549
SNB-19 = test system: SNB-19
MOLT-4 = test system: MOLT-4
SF-268 = test system: SF-268
Malme-3M = test system: Malme-3M
RPMI-8226 = test system: RPMI-8226
NCI-H23 = test system: NCI-H23
A498 = test system: A498
TK-10 = test system: TK-10
HT-29 = test system: HT-29
KM-20L2 = test system: KM-20L2
OVCAR-4 = test system: OVCAR-4
HL-60 = test system: HL-60
SK-MEL-5 = test system: SK-MEL-5
SF-295 = test system: SF-295
K562 = test system: K562
HOP-92 = test system: HOP-92
SW-620 = test system: SW-620
786-0 = test system: 786-0
NCI-H460 = test system: NCI-H460

CCC(=O)OC1CCn2c1nc1c2C(=O)C(C)=C(NC(C)=O)C1=N (stereo not given)
GI50 (UO-31): 2200 nM (inactive)
GI50 (HOP-62): 1830 nM (inactive)
GI50 (KM12): 2110 nM (inactive)
GI50 (NCI-H522): 1390 nM (inactive)
GI50 (COLO 205): 1720 nM (inactive)
GI50 (HCT-15): 2250 nM
GI50 (SK-MEL-2): 1750 nM (inactive)
GI50 (SK-OV-3): 2600 nM (inactive)
GI50 (DLD-1): 1420 nM (inactive)
GI50 (U-251): 3740 nM (inactive)
GI50 (HCC 2998): 3400 nM (inactive)
GI50 (EKVX): 2630 nM (inactive)
GI50 (DMS-273): 1670 nM (inactive)
GI50 (HCT-116): 849 nM (active)
GI50 (CAKI-1): 653 nM (active)
GI50 (HOP-18): 1800 nM (inactive)
GI50 (UACC-257): 1240 nM (inactive)
GI50 (ACHN): 1770 nM (inactive)
GI50 (SR): 2000 nM (inactive)
GI50 (SN12C): 1600 nM (inactive)
GI50 (XF498): 2650 nM (inactive)
GI50 (LOX IMVI): 755 nM (active)
GI50 (SNB-75): 2480 nM (inactive)
GI50 (IGROV-1): 2290 nM (inactive)
GI50 (OVCAR-5): 1870 nM (inactive)
GI50 (SF-539): 1740 nM (inactive)
GI50 (OVCAR-3): 453 nM (active)
GI50 (CCRF-CEM): 1000 nM (active)
GI50 (OVCAR-8): 1040 nM (active)
GI50 (M19-MEL): 186 nM (active)
GI50 (NCI-H226): 1930 nM (inactive)
GI50 (DMS-114): 1500 nM (inactive)
GI50 (SK-MEL-28): 2050 nM (inactive)
GI50 (UACC-62): 1320 nM (inactive)
GI50 (SNB-78): 2600 nM (inactive)
GI50 (A549): 3020 nM (inactive)
GI50 (SNB-19): 5260 nM (inactive)
GI50 (MOLT-4): 1540 nM (inactive)
GI50 (SF-268): 2540 nM (inactive)
GI50 (Malme-3M): 1430 nM (inactive)
GI50 (RPMI-8226): 2060 nM (inactive)
GI50 (NCI-H23): 1770 nM (inactive)
GI50 (A498): 1820 nM (inactive)
GI50 (TK-10): 3720 nM (inactive)
GI50 (HT-29): 1610 nM (inactive)
GI50 (KM-20L2): 1730 nM (inactive)
GI50 (OVCAR-4): 1350 nM (inactive)
GI50 (HL-60): 774 nM (active)
GI50 (SK-MEL-5): 1290 nM (inactive)
GI50 (SF-295): 2020 nM (inactive)
GI50 (K562): 2340 nM (inactive)
GI50 (HOP-92): 2210 nM (inactive)
GI50 (SW-620): 916 nM (active)
GI50 (786-0): 2430 nM (inactive)
GI50 (NCI-H460): 1470 nM (inactive)
